Reference: the METLIN SMRT retention time set (Domingo-Almenara et al. 2019)

Experiment: gradient 5% acetonitrile 3 min, to 50% in 2 min, to 85% in 15 min, held 3 min, 100 µL/min
Details: column: Zorbax Extend-C18 2.1 x 50 mm; eluents: water / acetonitrile, 0.1% formic acid
Method in brief: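 The system's dead and dwell volumes were 40 μL and 900 μL, with a Zorbax Extend-C18 column (2.1 × 50 mm, 1.8 μm) run at 100 μL/min in water and acetonitrile containing 0.1% formic acid each. Pure standards were analyzed in mixtures of ~100 molecules by HPLC–quadrupole time-of-flight mass spectrometry in positive and negative ionization mode. Retention time was assigned from computationally picked, manually inspected adduct peaks.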

Structure (SMILES)	RP-LC retention time [s]
Cc1ccc(-c2noc(-c3nn(-c4ccc(C)cc4)ccc3=O)n2)cc1	1010
CC(C)NC(=O)CSC1CCc2ccccc2NC1=O (stereo unspecified)	661
O=C(CN1C(=O)C2CCCCN2c2ccc(C(=O)N3CCCC3)cc21)NCc1ccco1 (stereo unspecified)	724
O=C(NC1CCN(c2cc(-c3cccs3)[nH]n2)C1)c1ccc2[nH]ccc2c1 (stereo unspecified)	672
CC1CCN(S(=O)(=O)c2ccc(-c3nnc(C(=O)NCCCN4CCCCCC4)o3)cc2)CC1	712
Cc1cc(C(=O)NC2CCCCCC2)nn1C	799
CC1CCN(c2nn(CC(=O)Nc3cccc(C(C)C)c3)c(=O)c3ccccc23)CC1	1320
CCOC(=O)N1CCN(c2cnc3cc(S(=O)(=O)N4CCCCC4)ccc3n2)CC1	891
O=C(Cn1nc2c3cc(-c4ccccc4)nn3ccn2c1=O)N1CCCc2ccccc21	940
O=C(CN1C(=O)C(C(=O)N2CCCC2)Sc2ccccc21)Nc1ccc(Cl)cc1 (stereo unspecified)	1070
Cc1nn(C)c(C)c1CNC(=O)C1CCN(c2cnn(Cc3ccccc3)c(=O)c2)CC1	654
Cn1ccc2c(cc(C(=O)N3CCN(c4ccccn4)CC3)n2C)c1=O	560
CC(C)(C)c1cc(C(=O)NCc2cccs2)nc2ccnn12	1110
O=C(CCn1cccn1)N1CCCn2ccnc2C1C1CCCC1 (stereo unspecified)	582
CCCn1cnc2cc(-c3noc(COc4cccc(C)c4)n3)ccc21	840
COc1cc(-c2nc3ccc(C)cn3c2Nc2ccc(C)cc2)ccc1O	661
COc1ccc(CCS(=O)(=O)NCC2CCN(Cc3ccccc3SC)CC2)cc1	598
COc1ccccc1OCC1c2ccsc2CCN1C(=O)CN(C(=O)NC(C)C)C(C)(C)C (stereo unspecified)	595
Cc1nc(-c2ccc(-c3noc(C(NS(=O)(=O)c4ccccc4)C(C)C)n3)cc2)cs1 (stereo unspecified)	1120
Cn1cccc1C(=O)N1CC(Oc2cccc(-c3nc(-c4ccccc4)no3)c2)C1	1220
CCc1nc(-c2c(C)cc(C)nc2NC(=O)c2ccc(C)c(F)c2)no1	883
CCc1ccc(-c2cc(C(F)(F)F)on2)cc1S(=O)(=O)N1CCN(c2ccccn2)CC1	933
Cc1nn(C)cc1S(=O)(=O)Nc1nc2ccc(S(C)(=O)=O)cc2s1	581
COc1ccc(-c2cc(NS(C)(=O)=O)n(C3CCS(=O)(=O)C3)n2)cc1 (stereo unspecified)	696

Further lines, results first:

RP-LC retention time [s]	Structure (SMILES)
1050	COc1ccc(C)cc1NC(=O)Cn1c(=O)cc(-c2nc(C3CC3)no2)c2ccccc21
926	CCn1ccc2sc(C)c(C(=O)NCc3cccc(Cl)c3)c2c1=O
858	CCOC(=O)c1c(NCc2ccc(F)cc2)c2ccc(Cl)cc2[nH]c1=O
753	CCc1ccc(CNC(=O)CCc2c(-c3ccc(Br)cc3)nc3ccccn23)cc1
862	O=C(NCc1ccccc1)N1CCCC1c1nc(-c2ccc(F)cc2F)no1 (stereo unspecified)
924	CCOC(=O)c1c(S(=O)(=O)N2CCC(C(=O)Nc3ccc(C)c(F)c3)CC2)c(C)n(C)c1C
927	COc1ccc(NC(=O)Cn2c(C)cc(-c3nnc(-c4ccccc4)o3)c2C)cc1
763	Cc1csc(-c2cc(S(=O)(=O)NCc3ccc(N(C)C)cc3)c(C)s2)n1
711	O=C(NCCn1c(=O)n(Cc2ccc(F)cc2)c2cccnc21)C1CC1
961	Cc1ccc(-n2cc3c(c(C(=O)Nc4ccc(C)cn4)c2=O)CC(C)(C)CC3=O)cc1
872	CCc1ccc(NC(=O)Nc2cccn3ncnc23)cc1
811	O=C(Nc1cccc(OCc2nnc(-c3ccc(Cl)cc3)o2)c1)c1cccnc1
